Data from patent US20240294541A1, “COMPOUNDS CONSTITUTING C20-MODIFIED SALINOMYCIN DERIVATIVES, A METHOD FOR OBTAINING THE SAME, A COMPOSITION CONTAINING THE SAME AND A USE OF SAID COMPOUNDS” (FILECLO SPOLKA Z OGRANICZONA ODPOWIEDZIALNOSCIA, priority 2021, published 2024).
Where two headings read alike, the source gives them in different places.

Legend:
Type in all cases: cell-based
[1] = system: NCI-H358 (human lung cancer); assay: cells; details: Table 4; for IC50: NCI-H358 human lung cancer cells, read-out: IC50 (nM) NCI-H358; for SI NCI-H358: selectivity coefficient vs normal BALB/3T3 fibroblasts
[2] = system: MIA PaCa-2 (human pancreatic cancer); assay: cells; details: for MIA PaCa-2 SI: selectivity coefficient vs normal BALB/3T3 cells; for SI MIA PaCa-2: selectivity coefficient vs normal BALB/3T3 fibroblasts
cancer cells = assay: In vitro cytotoxic activity on the panel of cancer cell lines (MTT/SRB), general statements; details: for anti-proliferative effect compared to that of the parent compound: Tables 3.1, 3.2, 4 and 5, parent compound salinomycin
[3] = system: PLC/PRF/5 (human liver cancer); assay: cells; details: for PLC/PRF/5 SI: selectivity coefficient vs normal BALB/3T3 cells; for SI PLC/PRF/5: selectivity coefficient vs normal BALB/3T3 fibroblasts
Hs294T (human melanoma) = assay: cells; details: for IC50: Hs 294T; for Hs294T SI: selectivity coefficient vs normal BALB/3T3 cells; for SI Hs294T: selectivity coefficient vs normal BALB/3T3 fibroblasts
[4] = system: SNU-16 (human gastric cancer); assay: cells; details: for SNU-16 SI: selectivity coefficient vs normal BALB/3T3 cells; for SI SNU-16: selectivity coefficient vs normal BALB/3T3 fibroblasts
[5] = system: A2780 (human ovarian cancer); assay: In vitro cytotoxicity, SRB assay, A2780; details: for IC50: Homo sapiens, A2780, 72 h with compound, SRB, n/a = non-active compound, read-out: A2780 IC50; for A2780 SI: selectivity coefficient vs normal BALB/3T3 cells
[6] = system: PFSK-1 (malignant primitive neuroectodermal tumour); assay: In vitro cytotoxicity, SRB assay, PFSK-1; details: for IC50: Homo sapiens, PFSK-1, 72 h with compound, SRB, n/a = non-active compound, read-out: PFSK-1 IC50; for PFSK-1 SI: selectivity coefficient vs normal BALB/3T3 cells
[7] = system: BALB/3T3 (normal mouse fibroblasts); assay: In vitro cytotoxicity, SRB assay, normal BALB/3T3 fibroblasts
[8] = system: NCI-H23 (human lung cancer); assay: In vitro cytotoxicity, SRB assay, NCI-H23; details: for IC50: Homo sapiens, NCI-H23, 72 h with compound, SRB, n/a = non-active compound, read-out: NCI-H23 IC50; for NCI-H23 SI: selectivity coefficient vs normal BALB/3T3 cells
[9] = system: A2780Cis (cisplatin-resistant human ovarian cancer); assay: In vitro cytotoxicity, SRB assay, A2780Cis; details: for IC50: Homo sapiens, A2780cis
[10] = system: KG-1 (human acute myeloid leukaemia); assay: In vitro cytotoxicity, MTT assay, KG-1; details: for IC50: Homo sapiens, 72 h with compound, MTT, n/a = non-active compound; for KG-1 SI: selectivity coefficient vs normal BALB/3T3 cells
A375 (human melanoma) = assay: In vitro cytotoxicity, SRB assay, A375; details: for IC50: Homo sapiens, A-375, 72 h with compound, SRB, n/a = non-active compound, read-out: A375 IC50; for A375 SI: selectivity coefficient vs normal BALB/3T3 cells
[11] = system: MV-4-11 (human biphenotypic leukaemia); assay: In vitro cytotoxicity, MTT assay, MV-4-11; details: for IC50: Homo sapiens, MV4-11, read-out: IC50 (nM) MV4-11
[12] = Table 4, MIA PaCa-2 human pancreatic cancer cells, read-out: IC50 (nM) MIA PaCa-2
[13] = Table 4, PLC/PRF/5 human liver cancer cells, read-out: IC50 (nM) PLC/PRF/5
[14] = Table 4, Hs294T human melanoma cells, read-out: IC50 (nM) Hs294T
[15] = Table 4, SNU-16 human gastric cancer cells, read-out: IC50 (nM) SNU-16
[16] = Homo sapiens, MIA PaCa-2, 72 h with compound, SRB, n/a = non-active compound, read-out: MIA PaCa-2 IC50
[17] = Homo sapiens, PLC-PRF-5, 72 h with compound, SRB, n/a = non-active compound, read-out: PLC/PRF/5 IC50
[18] = Homo sapiens, 72 h with compound, SRB, n/a = non-active compound, read-out: Hs294T IC50
[19] = Mus musculus, BALB/3T3, normal cells, 72 h with compound, SRB, n/a = non-active compound, read-out: BALB/3T3 IC50
[20] = 72 h, read-out: A2780Cis IC50 (nM)
[21] = Homo sapiens, SNU-16, 72 h with compound, MTT, n/a = non-active compound, read-out: SNU-16 IC50
[22] = Table 4, BALB/3T3 normal mouse fibroblasts, read-out: IC50 (nM) BALB3T3 normal cells

SMILES | IC50 [1] [nM] | IC50 [2, 12] [nM] | anti-proliferative effect compared to that of the parent compound (cancer cells) | IC50 [3, 13] [nM] | IC50 (Hs294T (human melanoma); [14]) [nM] | IC50 [4, 15] [nM] | IC50 [5] [nM] | A2780 SI [5] | IC50 [2, 16] [nM] | MIA PaCa-2 SI [2] | IC50 [6] [nM] | PFSK-1 SI [6] | IC50 [3, 17] [nM] | PLC/PRF/5 SI [3] | IC50 (Hs294T (human melanoma); [18]) [nM] | Hs294T SI (Hs294T (human melanoma)) | IC50 [7, 19] [nM] | IC50 [8] [nM] | SI A2780Cis [9] | IC50 ([9]; read-out: IC50 (nM) A2780Cis) [nM] | also measured
CCCOC(=O)N[C@@H]1C=C[C@]2(O[C@H]([C@@H](CC)C(=O)[C@@H](C)[C@@H](O)[C@H](C)[C@@H]3O[C@@H]([C@@H](CC)C(=O)O)CC[C@@H]3C)[C@@H](C)C[C@H]2C)O[C@@]12CC[C@@](C)([C@H]1CC[C@](O)(CC)[C@H](C)O1)O2 [FLC-00424-1•Na] | 48.7 | 38.4 | several times more potent compared to that of the parent compound | 5.01 | 685 | 220 |  |  |  |  |  |  |  |  |  |  |  |  |  |  | 
CCCCCCCCNC(=O)N[C@@H]1C=C[C@]2(O[C@H]([C@@H](CC)C(=O)[C@@H](C)[C@@H](O)[C@H](C)[C@@H]3O[C@@H]([C@@H](CC)C(=O)O)CC[C@@H]3C)[C@@H](C)C[C@H]2C)O[C@@]12CC[C@@](C)([C@H]1CC[C@](O)(CC)[C@H](C)O1)O2 [FLC-00366-1] |  |  |  |  |  |  | 0.9 | 128.0 | 45 | 2.5 | 4.53 | 25.3 | 5.62 | 20.4 | 214 | 0.5 | 115 | 5.78 | 550.8 | 0.21 | biological properties (IC50, SI) compared to the corresponding epi compounds (cancer cells; table 5 comparative examples, retained vs inverted C20 configuration): improved biological properties compared to their counterparts with a configuration conversion; IC50 ([7]; Table 5, BALB/3T3 normal mouse fibroblasts, read-out: IC50 (nM) BALB3T3 normal cells): 115 nM; NCI-H23 SI [8]: 19.8; A2780Cis RI [9]: 0.2; A2780Cis SI [9]: 550.8; IC50 [9, 20]: 0.21 nM; IC50 [10]: 40.6 nM; KG-1 SI [10]: 2.8; IC50 [4, 21]: 8.64 nM; SNU-16 SI [4]: 13.3; IC50 (A375 (human melanoma)): 69.4 nM; A375 SI (A375 (human melanoma)): 1.7
CC[C@@H](C(=O)[C@@H](C)[C@@H](O)[C@H](C)[C@@H]1O[C@@H]([C@@H](CC)C(=O)O)CC[C@@H]1C)[C@H]1O[C@]2(C=C[C@@H](NC(=O)OCC(F)F)[C@]3(CC[C@@](C)([C@H]4CC[C@](O)(CC)[C@H](C)O4)O3)O2)[C@H](C)C[C@@H]1C [FLC-00446-1•Na] | 50.8 | 26.8 | several times more potent compared to that of the parent compound | 37.9 | 189 | 262 |  |  |  |  |  |  |  |  |  |  |  |  | 294.5 | 0.71 | SI NCI-H358 [1]: 4.12; SI MIA PaCa-2 ([2]; Table 4): 7.8; SI MV4-11 [11]: 298.7; IC50 [11]: 0.7 nM; SI PLC/PRF/5 ([3]; Table 4): 5.5; SI Hs294T (Hs294T (human melanoma); Table 4): 1.1; IC50 [7, 22]: 209 nM; SI SNU-16 ([4]; Table 4): 0.8
CC[C@@H](C(=O)[C@@H](C)[C@@H](O)[C@H](C)[C@@H]1O[C@@H]([C@@H](CC)C(=O)O)CC[C@@H]1C)[C@H]1O[C@]2(C=C[C@@H](NC(=S)NCCCSC)[C@]3(CC[C@@](C)([C@H]4CC[C@](O)(CC)[C@H](C)O4)O3)O2)[C@H](C)C[C@@H]1C [FLC-00345-1] |  |  | several times more potent compared to that of the parent compound |  |  |  | 0.84 | 81.2 | 111 | 0.6 | 12.3 | 5.6 | 28 | 2.4 | 396 | 0.2 | 68.4 | 46.5 |  |  | NCI-H23 SI [8]: 1.5; A2780Cis RI [9]: 0.8; A2780Cis SI [9]: 96.6; IC50 [9, 20]: 0.71 nM; IC50 [10]: 39.2 nM; KG-1 SI [10]: 1.7; IC50 [4, 21]: 26 nM; SNU-16 SI [4]: 2.6; IC50 (A375 (human melanoma)): 400 nM; A375 SI (A375 (human melanoma)): 0.2
CC[C@@H](C(=O)[C@@H](C)[C@@H](O)[C@H](C)[C@@H]1O[C@@H]([C@@H](CC)C(=O)O)CC[C@@H]1C)[C@H]1O[C@]2(C=C[C@@H](NC(=O)C(=O)NCCc3ccccc3)[C@]3(CC[C@@](C)([C@H]4CC[C@](O)(CC)[C@H](C)O4)O3)O2)[C@H](C)C[C@@H]1C [FLC-00457-1•Na] | 446 | 53.7 | several times more potent compared to that of the parent compound | 122 | 2530 | 551 |  |  |  |  |  |  |  |  |  |  |  |  | 76.0 | 9.66 | SI NCI-H358 [1]: 1.65; SI MIA PaCa-2 ([2]; Table 4): 13.7; SI MV4-11 [11]: 40.7; IC50 [11]: 18 nM; SI PLC/PRF/5 ([3]; Table 4): 6.0; SI Hs294T (Hs294T (human melanoma); Table 4): 0.3; IC50 [7, 22]: 734 nM; SI SNU-16 ([4]; Table 4): 1.3
